The values that follow are results of earlier work, collected in patent publication US20060252738A1, “Method for preparing and using water-based steroid pheromone compositions” (Phero Tech Inc., priority 2005, published 2006).

Data set [1] relates to sows that have reached oestrus. The following applies: for function in place of boar saliva: pressurized aerosol sprays in organic solvents, sows that have reached oestrus, Melrose et al. 1971.
The next data set relates to sows. The following applies: pigs; Reed et al. (1974).

As for `C[C@]12CCC(=O)C[C@@H]1CC[C@@H]1[C@@H]2CC[C@]2(C)C=CC[C@@H]12` [androstenone, 5α-androst-16-en-3-one], in data set [1] (established by Melrose et al. (1972)), the effective dose was 2 to 20 µg. Further, the “function in place of boar saliva” value in data set [1] is recorded as “inducing an immobile mating stance”.

In the case of `C[C@@]12C=CC[C@H]1[C@@H]1CCC3=CC(=O)CC[C@]3(C)[C@H]1CC2` [andrsost-4,16-dien-3-one], the “bioactivity as diagnostic tool relative to androstenone” value with sows is given as “comparable”.

In the case of `C[C@@]12CCC[C@H]1[C@@H]1CC[C@H]3CC(=O)CC[C@]3(C)[C@H]1CC2` [5α-androstan-3-one], the “bioactivity as diagnostic tool relative to androstenone” value in the data set with sows is on record as “less effective”.

As for `C[C@]12CC[C@@H](O)C[C@@H]1CC[C@@H]1[C@@H]2CC[C@]2(C)C=CC[C@@H]12` [androstenol, 3α-hydroxy-5a-androst-16-ene], in data set [1], the “function in place of boar saliva” value was “inducing an immobile mating stance”.

In the case of `C[C@]12CCC(=O)C[C@H]1CC[C@@H]1[C@@H]2CC[C@]2(C)C=CC[C@@H]12` [5β-androst-16-en-3-one], in the data set with sows, the “bioactivity as diagnostic tool relative to androstenone” value was “comparable”.

For `C[C@]12CC[C@H](O)C[C@@H]1CC[C@@H]1[C@@H]2CC[C@]2(C)C=CC[C@@H]12` [3β-hydroxy-5α-androst-16-ene], in the data set on sows, the “bioactivity as diagnostic tool relative to androstenone” value was “less effective”.
